The values that follow are results of earlier work, collected in US20230139125A1, “DIETARY SUPPLEMENT FOR IMPROVING BRAIN PERFORMANCE” (priority 2021, published 2023).

In one data set the test system is age-related memory loss. The settings on record: end of six-month period; participants with relatively low memory scores at start; compared to placebo.
For data set [1], the system named is brain-derived neurotrophic factor (i.e. BDNF). The settings on record: ingesting small amounts.

With Phosphatidylserine [PS], in the data set on age-related memory loss, the memory result is reported as “significant improvement in memory”. For chlorogenic acids, the “brain-derived neurotrophic factor (i.e. BDNF)” value in data set [1] is reported as “not obtained”.
